Source: US20050171036A1, “Use of antitumor indolopyrrolocarbazole derivative and other anticancer agent in combination” (priority 2002, published 2005)

Tests used:
Format in all cases: in vivo
[1] = test system: P388 mouse leukemia cells; test: Survival of mice with intraperitoneal P388 leukemia, combined use (Example 2); conditions: CDF1 mice, P388 i.p., single i.p. dose day 1, Compound A 75, CDDP 1.67, ADM 1.5, VP-16 7.5 mg/kg; for Number of days survived (average ± standard deviation): complete remission counted as 60 days; for Increased life span (ILS %): versus control
Method: P388 mouse leukemia cells (1×10^6 cells) were transplanted intraperitoneally per mouse (day 0). One drug or two drugs were intraperitoneally administered on the next day (day 1). […] The ratio of increased life span (ILS %) was determined according to the following equation: ILS %=((the number of survived days for the group treated with drug)/(the number of survived days for the control group without drug)−1)×100
The combination index (CI) showing combination effect was determined by the following equation in accordance with the method by Uchida et al. (Uchida et al., Gan to Kagaku Ryouhou (Cancer and Chemotherapy), 25, 75-78 (1998)) based on the ILS % obtained from the treatment using one drug and the ILS % obtained from the combined treatment. CI=ILS % of the combined treatment/(ILS % with J-107088 (Compound A) alone+ILS % with another drug)
CI>1: synergistic effect, CI=1: additive effect, CI<1: antagonistic effect

[2] = test system: P388 mouse leukemia cells; test: Survival of mice with intraperitoneal P388 leukemia, equivalent-ILS doses (Example 4); conditions: CDF1 mice, P388 i.p.; single i.p. dose day 1; Compound A 25 mg/kg alone, ADM 1.5 mg/kg alone, Compound A 5 + ADM 0.3 mg/kg
Method: P388 mouse leukemia cells (1×10^6 cells) were transplanted intraperitoneally per mouse (day 0). One drug or two drugs were intraperitoneally administered on the next day (day 1). […] The ratio of increased life span (ILS %) was determined in the same manner as in Example 2.

[3] = Toxicity of equivalent-ILS doses given intraperitoneally for 5 consecutive days (Example 4); conditions: ADM 1.5 mg/kg alone, Compound A 5 + ADM 0.3 mg/kg
Method: This dose was intraperitoneally administered to mice once a day for consecutive 5 days. Thereafter, whether the animal was alive or dead was observed, and the effect of lowering toxicity was judged. As the toxicity index, the changes in the body weight between that before the administration and that on the subsequent day after the administration were recorded.

Row | SMILES | Number of days survived (average ± standard deviation) [1] [days] | Increased life span (ILS %) [1] [%] | Ratio of increased life span (ILS %) [2] [%] | Change in body weight (g) ([3]; before administration versus day after administration, i.p. once a day for 5 days) | Number of dead animals/number of animals per group ([3]; i.p. once a day for 5 consecutive days, Compound A 25 mg/kg alone)
1 | [NH2][Pt]([NH2])([Cl])[Cl] [CDDP, cisplatin] | 25.4 ± 19.6 | 121 |  |  | 
2 | COc1cccc2c1C(=O)c1c(O)c3c(c(O)c1C2=O)C[C@@](O)(C(=O)CO)C[C@@H]3O[C@H]1C[C@H](N)[C@H](O)[C@H](C)O1 [ADM, adriamycin (doxorubicin)] | 19.0 ± 1.9 | 65 | 92 | +0.1 g | 0/4
3 | COc1cc([C@@H]2c3cc4c(cc3[C@@H](O[C@@H]3O[C@@H]5CO[C@@H](C)O[C@H]5[C@H](O)[C@H]3O)[C@H]3COC(=O)[C@H]23)OCO4)cc(OC)c1O [VP-16, etoposide] | 17.4 ± 4.1 | 51 |  |  | 
